Reference: article PMC11232401, “Characterization of antimalarial activity of artemisinin-based hybrid drugs” (Antimicrobial Agents and Chemotherapy, 2024)
Like-named read-outs stand apart in the source and are kept apart here.

Key:
[1] = tested on: ring stages of NF54 strain of P. falciparum; assay: Exposure time dependence in drug activity (pLDH); format: cell-based; conditions: Plasmodium falciparum
Method: Each well of 96-well plates was filled with 100 µL drug and 100 µL culture containing ring-stage P. falciparum (NF54 strain) parasites, which were mixed to obtain a final parasitemia of 1.0% to 1.5% and 1.0% hematocrit. Plates were incubated at 37°C in a standard gas mixture. After 3 h and 6 h, plates were centrifuged, cell pellets were washed as described above then returned to the incubator for an additional 69 h and 66 h, respectively. In parallel, the same experiment was left without the washing step, enabling continuous drug exposure throughout. Plates were processed using the pLDH method, and IC50 values were calculated as described above. Three independent experiments were performed using two technical replicates.
Figure S2: Exposure time dependence of antiparasitic activity against ring stages of CQ-sensitive strain NF54 of P. falciparum. Data associated to Figure 2B in the main text of the manuscript. Footnotes for table: ^[a] Synchronized ring-stage parasites were incubated in the presence of compounds at indicated times, drugs were removed by washing, and plates were incubated until 72 h.^[b] Parasites were incubated in the presence of compounds for 72 h. ^[a,b^] Experiments were performed in parallel (paired). Parasite viability was determined by parasite lactate dehydrogenase (pLDH) assay. Data are from three experiments performed in duplicate.^ [c] […] MFQ = mefloquine. DHA = dihydroartemisinin; SEM = standard error of the mean; N.S. = not statistically significant.

[2] = tested on: D10 strain of P. falciparum; assay: Host cell-mediated drug degradation: antiplasmodial activity of uRBC supernatants; format: cell-based, Plasmodium falciparum; conditions: uRBC 1.0% hematocrit; for IC50: Plasmodium falciparum, 0.16 h, D10, pLDH, median ± SEM, read-out: IC50 of supernatants harvested at 0.16 h; for Fold changes (24 h/0.16 h): D10
Method: (§1) Each well of 96-well plates was filled with 125 µL drug (1000 nM) and 125 µL uninfected red blood cells (uRBC), which were mixed to obtain a final drug concentration of 500 nM and 2.5% or 1.0% hematocrit. The plates were incubated at 37°C in the standard gas mixture. After each time point (10 min, 6 h, and 24 h), supernatants were carefully harvested and stored at −80°C until use. Untreated uRBC incubated at the same times were used as negative controls, and DHA and AQ were employed as standard drugs. Next, supernatants were diluted in a complete medium in six different dilutions and were aliquoted in new plates. The antimalarial activity of these supernatants and freshly dissolved drugs was determined in an asynchronous parasite culture of P. falciparum (3D7, D10, and W2 strains) for 72 h using the same method described above, and parasite viability was assessed by the pLDH ([38]) and SYBR Green I ([41]) methods. Only the experiments where the IC50 values of the supernatants harvested at 10 min were the same as those of the respective fresh drugs were considered for determining equivalent drug concentration. […] Decay in drug concentration was estimated by using the normalized slope values calculated from linear regression fits using the slope values of a standard curve as reference. Three independent experiments were performed using two replicates.
(§2) Figure S5: Data associated to Figure 3 in the main text of the manuscript. Panel A: Representative response-concentration curves of the antiplasmodial activity of supernatant-derived uRBC (2.5% hematocrit) harvested at indicated times (0.16, 6, and 24 h). Drug activity on parasite viability was determined 72 h after parasite incubation (3D7 strain, asynchronous). Values were subtracted from control (without treatment), transformed, and normalized to calculate nonlinear fit. Parasite viability was determined by SYBR Green I. Values are mean and error bars are the standard deviation of a single experiment, each concentration in duplicate. Panel B: A table summarizing the IC50 values. Footnotes: ^[a] Parasite viability was determined by SYBR Green I. ^[b^] Parasite viability was determined by pLDH readout. Values are median ± SEM of three independent experiments, each concentration in duplicate. ^[c^] […] These values are expressed as mean and 95% confidence interval (CI) of one experiment, each concentration in duplicate. AQ = amodiaquine; DHA = dihydroartemisinin; uRBC = uninfected red blood cells. Unpaired two-tailed t-test at 95% CI: *p <0.05; **p <0.01.

[3] = tested on: W2 strain (CQ-resistant) of P. falciparum; assay: as above; format: cell-based, Plasmodium falciparum; conditions: uRBC 1.0% hematocrit; for IC50: Plasmodium falciparum, 0.16 h, W2, pLDH, median ± SEM, read-out: IC50 of supernatants harvested at 0.16 h; for Fold changes (24 h/0.16 h): W2
Method: as §1, §2

[4] = tested on: F32-ART (ART-resistant) strain of P. falciparum; assay: Standard chemosensitivity assay (SYBR Green I, 48 h); format: cell-based; conditions: Plasmodium falciparum, F32, 48 h
Method: (§3) Compounds were dissolved in DMSO and diluted in RPMI-1640 medium into five different concentrations (0.1–1000 nM). Each well of 96-well plates was filled with 100 µL drug at each concentration and 100 µL synchronized ring-stages of the ART-resistant strain F32-ART or its ART-susceptible twin strain F32-TEM at final parasitemia of 1% and 2% hematocrit. Plates were incubated for 48 h at 37°C and 5% CO2. The drugs were washed out in 1× phosphate-buffered saline (PBS) (Sigma-Aldrich), the plates were frozen and thawed, and then, the lysed parasites were transferred to black 96-well plates. SYBR Green I (Fisher Scientific, Illkirch, France) at a 2× concentration in a lysis buffer (20 mM TRIS base, pH 7.5, 20 mM EDTA, 0.008% wt/vol saponin, 0.08% wt/vol Triton X-100) was then added and the plates were incubated for 1 h at room temperature in the dark. Fluorescence was measured at 485 nm excitation and 528 nm emission in a VICTOR Nivo plate reader (Perkin Elmer, Waltham, USA) and the IC50s values were then calculated using Prism 7 (GraphPad, San Diego, USA).
(§4) ^[a] Parasites were exposed for 48 h of incubation in the presence of drugs, then parasite viability was determined using SYBR Green I. Mean of two independent experiments. DHA = dihydroartemisinin; SD = standard deviation.

[5] = tested on: F32-TEM (ART-sensitive) strain of P. falciparum; assay: as above; format: cell-based; conditions: Plasmodium falciparum, F32, 48 h, read-out: IC50 (nM, mean ± SD) for P. falciparum (48 h), F32-TEM (ART-sensitive)
Method: as §3, §4

[6] = NF54, 6 h drug pulse, wash, incubated until 72 h, median ± SEM, read-out: IC50, 6 h + 66 h
[7] = NF54, 72 h continuous drug, median ± SEM, read-out: IC50, 72 h
[8] = NF54, read-out: IC50, 3 h + 69 h, 3 h drug pulse, wash, incubated until 72 h, median ± SEM
[9] = read-out: IC50 (nM, mean ± SD) for P. falciparum (48 h), F32-ART (ART-resistant)

Compound | IC50 [1, 6] [nM] | IC50 [1, 7] [nM] | IC50 [1, 8] [nM] | IC50 [2] [nM] | Fold changes (24 h/0.16 h) [2] | IC50 [3] [nM] | Fold changes (24 h/0.16 h) [3] | IC50 [4, 9] [nM] | IC50 ([4]; read-out: IC50 in the standard chemosensitivity assay) [nM] | IC50 [5] [nM]
C[C@H]1[C@@H](O)O[C@@H]2O[C@@]3(C)CC[C@H]4[C@H](C)CC[C@@H]1[C@@]24OO3 [DHA, dihydroartemisinin, reference compound] | 5 ± 0.5 | 1.9 ± 0.2 | 100 ± 25 | 3.5 ± 0.43 | 19.9 ± 0.09 | 1.9 ± 0.25 | 15.82 ± 2.21 | 0.8 ± 0.8 | < 5 | 2 ± 0.2
COCCOCCOCCOCCn1c(-c2ccc(-n3cc(-c4ccc(OC5OC6OC7(C)CCC8C(C)CCC(C5C)C68OO7)cc4)nn3)cc2)nc2ccccc21 (stereo not drawn) [Hybrid 1] | 1.5 ± 0.3 | 1.5 ± 0.1 | 220 ± 80 | 1.8 ± 0.08 | 0.90 ± 0.08 |  | 0.98 ± 0.22 | 4.2 ± 1.3 |  | 2.6 ± 0.6
CC1CCC2C(C)C(OC(=O)CCC(=O)OCCNc3ccnc4cc(Cl)ccc34)OC3OC4(C)CCC1C32OO4 (stereo not drawn) [Hybrid 2] | 9 ± 1.5 | 3.8 ± 0.4 | 75 ± 18 | 3.7 ± 1.32 | 1.25 ± 0.46 | 4.3 ± 1.74 | 1.38 ± 0.15 | 4.5 ± 2.5 |  | 4.8 ± 1.2
